Our source for the IC50 values is US6239130A, “Phosphodiesterase 4-inhibiting diazepinoindolones” (Warner-Lambert Company, priority 1997, dated 2001).

This experiment has as its system PDE4 enzyme of human origin. The experiment can be described thus: PDE4-inhibiting activity on an enzyme preparation obtained from the U937 cell line. In kind it is biochemical. As for the experimental part: In the case of the PDE4 enzymes, this value is compared with that of rolipram, a specific PDE4 inhibitor. […] Measurement of the enzyme activity of the different types of PDE, and especially of the PDE4 enzymes, is then carried out according to a method adapted from W. J. Thompson, ibidem.
For orientation: IC50 means the midpoint of a concentration-inhibition curve. A lower IC50 goes with greater potency in that assay. With `Cc1cc2c3c(c1)C(c1ccccc1)=NC(n1c(C)nc4cc(C(=O)N[C@@H](CCC(=O)O)C(=O)O)ccc4c1=O)C(=O)N3CC2` (stereo partly shown) [Example 35H, N-(2-Methyl-3-(9-methyl-4-oxo-1-phenyl-3,4,6,7-tetrahydro[1,4]diazepino[6,7,1-hi]indol-3-yl)-4-oxo-3,4-dihydroquinazoline-7-carboxyl)glutamic acid], the IC50 is 219 nM. This lies in the sub-micromolar range. As for `Cc1cc2c3c(c1)C(c1ccccc1)=NC(n1c(C)nc4cc(C(=O)N[C@@H](CCCCN)C(=O)O)ccc4c1=O)C(=O)N3CC2` (stereo partly shown) [Example 35I], the figure is 120 nM; as for `CCOC(=O)[C@H](Cc1ccccc1)NC(=O)c1ccc2c(=O)n(C3N=C(c4ccccc4)c4cc(C)cc5c4N(CC5)C3=O)c(C)nc2c1` (stereo partly shown) [Example 36, Ethyl 2-{[2-methyl-3-(9-methyl-4-oxo-1-phenyl-3,4,6,7-tetrahydro[1,4]diazepino[6,7,1-hi]indol-3-yl)-4-oxo-3,4-dihydroquinazolin0e-7-carbonyl]amino}-3-phenyl-(L)-propionate], 312 nM. With `COc1ccc(C2CNC(=O)C2)cc1OC1CCCC1` (stereo not shown) [rolipram, reference compound], inhibition was half-maximal at 792 nM (IC50).
